In US11331369B2, “Endoparasitic depsipeptides” (Zoetis Services LLC, priority 2017, dated 2022):

What follows are compounds tested on microfilariae of Dirofilaria immitis (assay: Dirofilaria immitis, Microfilaria (DiMF) In vitro Assay). Details: 72 h, read-out: DiMF Minimum Effective Dose (MED), approximately 72 hours incubation, microfilariae assessed for survival or paralysis.
Assay type: cell-based

Compound	minimal effective concentration [µM]
CC(C)C[C@H]1C(=O)O[C@H](Cc2ccc(Cn3ccc(C(C)C)n3)cc2)C(=O)N(C)[C@@H](CC(C)C)C(=O)O[C@H](C)C(=O)N(C)[C@@H](CC(C)C)C(=O)O[C@H](Cc2ccccc2)C(=O)N(C)[C@@H](CC(C)C)C(=O)O[C@H](C)C(=O)N1C [Example 2-83, (3S,6R,9S,12R,15S,18R,21S,24R)-6-benzyl-3,9,15,21-tetraisobutyl-18-(4-((3-isopropyl-1H-pyrazol-1-yl)methyl)benzyl)-4,10,12,16,22,24-hexamethyl-1,7,13,19-tetraoxa-4,10,16,22-tetraazacyclotetracosan-2,5,8,11,14,17,20,23-octaone]	0.01 to 0.1
CC(C)C[C@H]1C(=O)O[C@H](Cc2ccc(Cn3cc(-c4cn(C)nn4)cn3)cc2)C(=O)N(C)[C@@H](CC(C)C)C(=O)O[C@H](C)C(=O)N(C)[C@@H](CC(C)C)C(=O)O[C@H](Cc2ccccc2)C(=O)N(C)[C@@H](CC(C)C)C(=O)O[C@H](C)C(=O)N1C [Example 2-84, (3S,6R,9S,12R,15S,18R,21S,24R)-6-benzyl-3,9,15,21-tetraisobutyl-4,10,12,16,22,24-hexamethyl-18-(4-((4-(1-methyl-1H-1,2,3-triazol-4-yl)-1H-pyrazol-1-yl)methyl)benzyl)-1,7,13,19-tetraoxa-4,10,16,22-tetraazacyclotetracosan-2,5,8,11,14,17,20,23-octaone]	0.01 to 0.1
CC(C)C[C@H]1C(=O)O[C@H](Cc2ccc(Cn3nc(C4CC4)c(N)c3C3CC3)cc2)C(=O)N(C)[C@@H](CC(C)C)C(=O)O[C@H](C)C(=O)N(C)[C@@H](CC(C)C)C(=O)O[C@H](Cc2ccccc2)C(=O)N(C)[C@@H](CC(C)C)C(=O)O[C@H](C)C(=O)N1C [Example 2-85, (3S,6R,9S,12R,15S,18R,21S,24R)-6-(4-((4-amino-3,5-dicyclopropyl-1H-pyrazol-1-yl)methyl)benzyl)-18-benzyl-3,9,15,21-tetraisobutyl-4,10,12,16,22,24-hexamethyl-1,7,13,19-tetraoxa-4,10,16,22-tetraazacyclotetracosan-2,5,8,11,14,17,20,23-octaone]	0.01 to 0.1
CCc1nn(Cc2ccc(C[C@H]3OC(=O)[C@H](CC(C)C)N(C)C(=O)[C@@H](C)OC(=O)[C@H](CC(C)C)N(C)C(=O)[C@@H](Cc4ccccc4)OC(=O)[C@H](CC(C)C)N(C)C(=O)[C@@H](C)OC(=O)[C@H](CC(C)C)N(C)C3=O)cc2)c(CC)c1N [Example 2-86, (3S,6R,9S,12R,15S,18R,21S,24R)-6-(4-((4-amino-3,5-diethyl-1H-pyrazol-1-yl)methyl)benzyl)-18-benzyl-3,9,15,21-tetraisobutyl-4,10,12,16,22,24-hexamethyl-1,7,13,19-tetraoxa-4,10,16,22-tetraazacyclotetracosan-2,5,8,11,14,17,20,23-octaone]	0.01 to 0.1
CC(C)C[C@H]1C(=O)O[C@H](Cc2ccc(Cn3ccc(C4CCCC4)n3)cc2)C(=O)N(C)[C@@H](CC(C)C)C(=O)O[C@H](C)C(=O)N(C)[C@@H](CC(C)C)C(=O)O[C@H](Cc2ccccc2)C(=O)N(C)[C@@H](CC(C)C)C(=O)O[C@H](C)C(=O)N1C [Example 2-88, (3S,6R,9S,12R,15S,18R,21S,24R)-6-benzyl-18-(4-((3-cyclopentyl-1H-pyrazol-1-yl)methyl)benzyl)-3,9,15,21-tetraisobutyl-4,10,12,16,22,24-hexamethyl-1,7,13,19-tetraoxa-4,10,16,22-tetraazacyclotetracosan-2,5,8,11,14,17,20,23-octaone]	0.01 to 0.1
CC(C)C[C@H]1C(=O)O[C@H](Cc2cccc(Cn3cccn3)c2)C(=O)N(C)[C@@H](CC(C)C)C(=O)O[C@H](C)C(=O)N(C)[C@@H](CC(C)C)C(=O)O[C@H](Cc2cccc(Cn3cccn3)c2)C(=O)N(C)[C@@H](CC(C)C)C(=O)O[C@H](C)C(=O)N1C [Example 4-1, (3S,6R,9S,12R,15S,18R,21S,24R)-6,18-bis(3-((1H-pyrazol-1-yl)methyl)benzyl)-3,9,15,21-tetraisobutyl-4,10,12,16,22,24-hexamethyl-1,7,13,19-tetraoxa-4,10,16,22-tetraazacyclotetracosan-2,5,8,11,14,17,20,23-octaone]	0.001 to 0.01
COc1cnn(Cc2cccc(C[C@H]3OC(=O)[C@H](CC(C)C)N(C)C(=O)[C@@H](C)OC(=O)[C@H](CC(C)C)N(C)C(=O)[C@@H](Cc4cccc(Cn5cc(OC)cn5)c4)OC(=O)[C@H](CC(C)C)N(C)C(=O)[C@@H](C)OC(=O)[C@H](CC(C)C)N(C)C3=O)c2)c1 [Example 4-9, (3S,6R,9S,12R,15S,18R,21S,24R)-3,9,15,21-tetraisobutyl-6,18-bis(3-((4-methoxy-1H-pyrazol-1-yl)methyl)benzyl)-4,10,12,16,22,24-hexamethyl-1,7,13,19-tetraoxa-4,10,16,22-tetraazacyclotetracosan-2,5,8,11,14,17,20,23-octaone]	0.01 to 0.1
CC(C)C[C@H]1C(=O)O[C@H](Cc2cccc(Cn3nc(C#N)cc3C#N)c2)C(=O)N(C)[C@@H](CC(C)C)C(=O)O[C@H](C)C(=O)N(C)[C@@H](CC(C)C)C(=O)O[C@H](Cc2cccc(Cn3nc(C#N)cc3C#N)c2)C(=O)N(C)[C@@H](CC(C)C)C(=O)O[C@H](C)C(=O)N1C [Example 4-14, 1,1′-(((((2R,5S,8R,11S,14R,17S,20R,23S)-5, 11,17,23-tetraisobutyl-4,8,10,16,20,22-hexamethyl-3,6,9,12,15,18,21,24-octaoxo-1,7,13,19-tetraoxa-4,10,16,22-tetraazacyclotetracosane-2,14-diyl)bis(methylene))bis(3,1-phenylene))bis(methylene))bis(1H-pyrazole-3,5-dicarbonitrile)]	0.001 to 0.01
CC(C)C[C@H]1C(=O)O[C@H](Cc2cccc(Cn3cc(-c4ccccn4)cn3)c2)C(=O)N(C)[C@@H](CC(C)C)C(=O)O[C@H](C)C(=O)N(C)[C@@H](CC(C)C)C(=O)O[C@H](Cc2cccc(Cn3cc(-c4ccccn4)cn3)c2)C(=O)N(C)[C@@H](CC(C)C)C(=O)O[C@H](C)C(=O)N1C [Example 4-16, (3S,6R,9S,12R,15S,18R,21S,24R)-3,9,15,21-tetraisobutyl-4,6,10,16,18,22-hexamethyl-12,24-bis(3-((4-(pyridin-2-yl)-1H-pyrazol-1-yl)methyl)benzyl)-1,7,13,19-tetraoxa-4,10,16,22-tetraazacyclotetracosan-2,5,8,11,14,17,20,23-octaone]	0.01 to 0.1
CC(C)C[C@H]1C(=O)O[C@H](Cc2cccc(Cn3cc(O)cn3)c2)C(=O)N(C)[C@@H](CC(C)C)C(=O)O[C@H](C)C(=O)N(C)[C@@H](CC(C)C)C(=O)O[C@H](Cc2cccc(Cn3cc(O)cn3)c2)C(=O)N(C)[C@@H](CC(C)C)C(=O)O[C@H](C)C(=O)N1C [Example 4-17, (3S,6R,9S,12R,15S,18R,21S,24R)-6,18-bis(3-((4-hydroxy-1H-pyrazol-1-yl)methyl)benzyl)-3,9,15,21-tetraisobutyl-4,10,12,16,22,24-hexamethyl-1,7,13,19-tetraoxa-4,10,16,22-tetraazacyclotetracosan-2,5,8,11,14,17,20,23-octaone]	0.01 to 0.1
